The record followed here is patent publication US20090023694A1, “Contraceptive” (GRUNENTHAL GMBH, priority 2006, published 2009).

The test system of this test is GABAA receptors. The experiment in a line: Influence on the binding of muscimol to GABAA receptors (rat brain). The conditions noted are these: 5 nM [3H] muscimol, cerebral rat cortex membranes. On the procedure: The following tests for determining the influence of allopregnanolone, 3-α-OH-CMA and 3-β-OH-CMA on the binding of muscimol to GABAA receptors (in rats) are based on the publication of the experimental specifications of Snodgrass, S. R. (Nature, 1979, V273, p. 392-394). The corresponding disclosure is included herein as a reference and is part of the disclosure of the present application.
Membrane preparations of cerebral rat cortex material were prepared. 5 nM [^3H] muscimol was used as a reference substance and 10 μM muscimol was used to determine the nonspecific binding. The substances ([^3H] muscimol, allopregnanolone) were each incubated at the receptor for 10 minutes at a temperature of approximately 4° C. The stock solution (5×10^−2 M) of allopregnanolone was prediluted in 75% DMSO at a ratio of 1:10 and was subsequently further diluted in 25% DMSO at a ratio of 1:5. The final concentration of allopregnanolone in the test was 1×10^−10 M, 1×10^−9 M, 1×10^−8 M, 1×10^−7 M, 1×10^−6 M and 1×10^−5 M respectively. The washing steps and the determination of radioactivity were carried out as previously described under point 1.
The influence of 3-α-OH-CMA and 3-β-OH-CMA on the binding of muscimol to GABAA receptors (in rats) was determined in a similar manner to the method described previously. Instead of allopregnanolone, 3-α-OH-CMA or 3-β-OH-CMA were used.

Consider `CC(=O)O[C@]1(C(C)=O)CC[C@H]2[C@@H]3C=C(Cl)C4=C[C@H](O)CC[C@]4(C)[C@H]3CC[C@@]21C` [3-α-OH-CMA, 3α-hydroxy-6-chloro-17α-acetoxy-4,6-pregnadien-20-one], for which the “increase of binding of radioactively labelled muscimol” value (“increase” below) (0.001 μM test substance) was 12%. For `CC(=O)O[C@]1(C(C)=O)CC[C@H]2[C@@H]3C=C(Cl)C4=C[C@@H](O)CC[C@]4(C)[C@H]3CC[C@@]21C` [3-β-OH-CMA, 3β-hydroxy-6-chloro-17α-acetoxy-4,6-pregnadien-20-one], the “increase” value (0.1 μM test substance) is recorded as 31%.

Consider `CC(=O)[C@H]1CC[C@H]2[C@@H]3CC[C@H]4C[C@H](O)CC[C@]4(C)[C@H]3CC[C@]12C` [allopregnanolone, reference compound], for which the “increase” value (1 μM test substance) was determined as 38%.
